Experimental data as given in patent US20120122965A1, “COMPOSITIONS FOR SKIN PROTECTION AND IMPROVEMENT OF SKIN DISEASES CONTAINING THE DIBENZO-P-DIOXINE DERIVATIVES” (priority 2007, published 2012).

Legend:
[1] = system: rat basophilic leukemia cell (RBL-2H3); test: Inhibition on histamine release (DNP-BSA stimulated); assay type: cell-based; settings: 50 μg/ml, RBL-2H3 cells, vs negative control
Experimental: In order to assess the anti-inflammation and anti-allergic activities of the compositions in the present invention, the inhibitory effects of the compositions on histamine synthesis, which closely related with inflammation including allergy, were investigated. The inhibitory effects of the compositions on histamine synthesis were assessed using the rat basophilic leukemia cell (RBL-2H3) according to the Kawasaki's method. After the cell (1×10^5 cells/well) was cultured in RPMI 1640 medium supplemented with 2% FBS (fetal bovine serum) and rat anti-DNP (dinitrophenol) IgE at 37° C. for 120 min, the cell was washed with the HPEPS buffer to remove the residual IgE. The cells was incubated in either absence (negative control) or presence (test group) of the com[…]. for 10 min. The cell was then treated with DNP-BSA (Dinitrophenol-conjugated Bovine serum albumin), as a histamine release antigen, for 1 hour at 37° C. After the reaction was stopped by adding the HEPES buffer solution, the supernatant was collected and treated with 20 μl of the perchloric acid and centrifuged. The histamine release in the supernatant was measured using the HPLC. The % inhibitions on histamine release of test group were calculated by following Equation compared with negative control. […] H: histamine release of test group H0: histamine release of negative control

[2] = system: B-16 cells (mouse melanoma, ATCC CRL 6323); test: Inhibition of melanin synthesis; assay type: cell-based; settings: 50 μg/ml, 3 days, vs solvent control; for inhibition at 50 µg/mL: Mus musculus, B16, 72 h, read-out: Inhibitory effect on melanin synthesis (%)
Experimental: Catechin, rasveratrol, isoflavone, kojic acid, ascorbic acid, and Moriradicis cortex extracts were used as positive controls.
The B-16 cells (mouse melanoma, ATCC CRL 6323) were maintained in the DMEM medium supplemented 4.5 g/E of glucose, 10% serum, and 1% antibiotic at 37° C. for 24 hours. After the cell was incubated with 0.05% trypsin containing 0.02% EDTA, the cell was plated and incubated for 48 hours. The cells were treated with 50 μg/ml of compositions 1 to 18, or positive controls and incubated at 37° C. for 3 days. The cells were then added with 1 me of lysis buffer (phosphate buffer solution, 0.02% EDTA, 0.05% trypsin) and centrifuged for 5 min After the cells were treated with 5% trichloro acetate (TCA), the farmed melanin was separated and dissolved in 1N NaOH. The absorbance was measured at 475 nm using spectrophotometer. Concentration of melanin was determined by the standard curve of synthetic melanin (SIGMA CO. USA). The cell treated with the same amount of solvent was used as a negative control. The inhibitory effects of each composition on melanin synthesis were determined by following Equation.
{1−(M/M0)}×100 [Equation]
M: amount of melanin of test group or positive controls
M0: amount of melanin of negative control

elastase = test: Inhibition of elastase; assay type: biochemical; settings: 50 μg/ml, 10 nM elastase, 25° C., 10 min
Experimental: Catechin, rasveratrol, isoflavone, lactokine were used for positive controls. […] The cell treated with the same amount of solvent was used as a negative control. The inhibitory effects of each sample on elastase were determined by following Equation. The results are described in Table 3. {1−(E/E0)}×100 [Equation] E: The absorbance of test group or positive control E0: The absorbance of negative control

[3] = system: NHEK (F) cells (normal human epidermal keratinocytes of neonatal foreskin cell); settings: concentration that reaches 50% of apoptosis, 1 hour incubation
Experimental: (§1) The cytotoxicity of the compositions to the normal skin cell was assessed using the NHEK (F) cells (normal human epidermal keratinocytes of neonatal foreskin cell) and the NB1RGB cells (normal human fibroblast cell line from skin). NHEK (F) and NB1RGB cells, which are main components of the epidermis and Bemis in normal human skin, produce collagen and elastin and provide skin elasticity.
(§2) The mixture of PMS/WST-1 (1-methoxy-5-methylphenazinium methyl sulfate/2-(4-indophenyl)-3-(4-nitrophenyl)-5-(2,4-disulfo phenyl)-2H-tetrazolium monosodium salt) was added to the medium and incubated for 1 hour to generate soluble formosan, and then the absorbance was measured at 415 nm using spectrophotometer. The cells treated with solvent without the compositions were used as a negative control, whereas the cells treated with 1% (w/v) SDS solution were used as a positive control (100% cell apoptosis).
(§3) apoptosis(%)=(A0−A/A0−As)×100 [Equation]
(§4) A0=absorbance of the cell that was not treated with the composition
(§5) A=absorbance of the cell that was treated with the composition […]
(§6) As=absorbance of the cell that was treated with 1% (w/v) SDS (positive control group)

[4] = system: NB1RGB cells (normal human fibroblast cell line from skin); settings: concentration that reaches 50% of apoptosis, 1 hour incubation
Experimental: as §1, §2, §3, §4, §5, §6

Hamster sebocyte = test: Suppression of sebocyte proliferation ([3H] thymidine); assay type: cell-based; settings: for % of untreated cell / cell number (×10^3 d.p.m/well): 12 days; for cell number (×10^3 d.p.m/well): control 2.90 ± 0.20
Experimental: Hamster sebocyte were established from sebaceous glands of auricles of the 5 week-old hamsters according to Sato's method. Sebocytes (2.35×10^4 cells/plate) were cultured in DMEM/F12 medium supplemented with 2% FBS and 2% human serum for 24 hours. The cells were treated with the composition 6 and 14 in different concentrations one time per 3 days for 12 days. The [^3H] thymidine (1 kBq/well) (Amersham Bioscience) was added 3 hours before the final treatment. The amount of [^3H] thymidine combined with DNA was measured by using liquid scintillation counter. The cell proliferation activity was determined as compared with negative control.

[5] = system: TG (triacyl glycerol) synthesis; test: Inhibition of TG synthesis in hamster auricles; assay type: in vivo; settings: for Relative TG concentration in the skin cell (%) / Relative TG concentration in the skin surface (%): hamster auricles, 200 μl of 10% solution topically once a day for 14 days, control group = 100
Experimental: The prevention and treatment effects of the compositions on the acne were assessed through the inhibition of TG (triacyl glycerol) synthesis and sebocyte proliferation in hamster model.
The inhibitory effects of the composition 6 and 14 on TG synthesis were assessed as compared with catechin (positive control group). 5 week-old male hamster was divided into three groups (negative control group, test group, positive control group) and housed 10 animals to a cage after the acclimatization for 2 weeks. Animal rooms were maintained at 25±1° C. and 55% of humidity with a 12-hr light/dark cycle. The animals were freely accessed to diet and water throughout the study. The auricles of hamster were topically treated once a day for 14 days with 200 μl of 10% of the composition 6, 14 or catechin. The solvent for topical application was composed of a mixture of ethanol and glycerol (95:5, v/v). The animals in negative control group were treated with the same volume of vehicle. The auricles were separated from the body and the sebum generated on the skin surface was extracted with acetone. The amount of TG in skin surface was calculated from the sebum extracts. Sebocyte were suspended into solution from the auricle tissues using sonicator, and then amount of intercellar TG was determined by automatic thin-layer chromatography using triolate as a standard. The relative TG concentrations of each sample were calculated from comparison with negative control.

[6] = system: pro-inflammatory cytokines (IL-1α, IL-1β, IL-6, IL-8, and TNF-α); test: Suppression of inflammatory gene expression induced by UV exposure in NHEK cells; assay type: cell-based, human; settings: 50 μg/ml, UVB 40 mJ, compared with positive control (UVB only), FIG. 3
Experimental: The anti-inflammation effects of the compositions were investigated by measuring the UVB-induced generation of pro-inflammatory cytokines (IL-1α, IL-1β, IL-6, IL-8, and TNF-α) in the epidermis.
The normal human epidermal keratinocytes (NHEK cell line) were incubated in the keratinocyte-SFM medium (serum-free medium) at 95% humidity in 5% carbon dioxide at 37° C. The cells were placed (3×10^4 cells/wall) into the 96-well plate and allowed to adhere 24 hours. The cells were treated with the composition 6, 16 or green tea extract in the concentration of 50 μg/ml. DMSO (dimethyl sulfoxide) was used as a solvent and the final concentration of DMSO was 0.1% (v/v). After incubation for 24 hours, the cells were was irradiated with UVB (40 mJ/cd). The cultured supernatants were collected 24 hour after UVB irradiation. The concentrations of pro-inflammatory cytokines (IL-1β, IL-6, IL-8, and TNF-α) were deteHnined from Human Inflammation Cytometric Bead Assay kit (Becton Deckinson, San Diego, USA). The concentration of IL-1α was measured using the enzyme immunoassay. The results are described in FIG. 2. The negative control indicates the cells which were neither irradiated nor treated with the compositions, and the positive control means the cells which were only irradiated with UVB without treatment of the compositions.

[7] = sample concentration 10 (unit not given)
[8] = sample concentration 20 (unit not given)
[9] = sample concentration 40 (unit not given)

Row | Compound | % Inhibition on histamine release [1] [%] | Inhibitory effect on melanin synthesis (%) [2] [%] | Inhibition of Elastase (%) (elastase) | LD50 (μM) NHEK (F) cell [3] [µM] | LD50 (μM) NB1RGB cell [4] [µM] | further results
1 | Oc1cc(O)cc(Oc2c(O)cc(O)c3c2Oc2c(O)cc(O)c(-c4c(O)cc(O)c5c4Oc4c(O)cc(O)c(Oc6cc(O)cc(O)c6)c4O5)c2O3)c1 [composition 5] | 77.4 | 83.5 | 90.4 | 100.4 |  | 
2 | Oc1cc(O)cc(Oc2c(Oc3c(O)cc(O)cc3O)cc(O)c3c2Oc2c(O)cc(O)cc2O3)c1 [composition 9] | 72.1 | 84.3 | 82.7 | 57.2 | 114.3 | 
3 | Oc1cc(O)cc(Oc2c(O)cc(O)c3c2Oc2c(cc(O)c(-c4c(O)cc5c(c4O)Oc4c(Oc6cc(O)cc(O)c6)c(O)cc(O)c4O5)c2O)O3)c1 [composition 6] | 75.9 | 89.8 | 89.9 | 105.4 | 97.3 | sebocyte proliferation (Hamster sebocyte; Table 9, in words): significantly suppressed sebocyte proliferation; % of untreated cell (Hamster sebocyte; [7]): 78.4%; cell number (×10^3 d.p.m/well) (Hamster sebocyte; [7]): 2.26 ± 0.67 ×10^3 d.p.m/well; % of untreated cell (Hamster sebocyte; [8]): 30.2%; cell number (×10^3 d.p.m/well) (Hamster sebocyte; [8]): 0.87 ± 0.07 ×10^3 d.p.m/well; % of untreated cell (Hamster sebocyte; [9]): 10.4%; cell number (×10^3 d.p.m/well) (Hamster sebocyte; [9]): 0.30 ± 0.05 ×10^3 d.p.m/well; sebum production on skin surface and in the skin cell ([5]; compared with negative control): significantly decrease sebum production; Relative TG concentration in the skin cell (%) [5]: 54.9%; Relative TG concentration in the skin surface (%) [5]: 66.2%; levels of pro-inflammatory cytokines [6]: significantly decrease levels of pro-inflammatory cytokines
4 | O=C1O[C@H]([C@@H](O)CO)C(O)=C1O [ascorbic acid, reference compound] |  |  |  |  |  | inhibition at 50 µg/mL [2]: 65.3%
5 | Oc1cc(O)cc(Oc2c(O)cc(O)c3c2Oc2c(O)cc4oc5cc(O)cc(O)c5c4c2O3)c1 [composition 7] | 70.8 | 80.5 | 88.7 | 78.9 | 100.4 | 
6 | Oc1cc(O)cc(Oc2cc(O)c3c(c2)Oc2c(O)cc(O)c(Oc4cc(O)cc(O)c4)c2O3)c1 [composition 8] | 62.9 | 87.6 | 87.7 | 93.2 | 104.8 | 
7 | Oc1ccc(/C=C/c2cc(O)cc(O)c2)cc1 [rasveratrole, reference compound] |  | 40.9 | 48.3 |  |  | 
8 | O=c1c(-c2ccccc2)coc2ccccc12 [isoflavone, reference compound] |  |  | 38.3 |  |  | inhibition at 50 µg/mL [2]: 64.3%
9 | Oc1cc(O)cc(Oc2c(O)cc(O)c3c2Oc2c(O)cc(O)cc2O3)c1 [composition 1] | 60.4 | 84.3 | 87.4 | 56.4 | 110.4 | 
10 | catechin [reference compound] |  | 50.4 | 50.4 |  |  | Relative TG concentration in the skin cell (%) [5]: 110.4%; Relative TG concentration in the skin surface (%) [5]: 108.2%
11 | O=c1cc(CO)occ1O [kojic acid, reference compound] |  |  |  |  |  | inhibition at 50 µg/mL [2]: 60.3%
12 | Oc1cc(O)cc(Oc2c(O)cc(O)c3c2Oc2c(O)cc(O)c(-c4c(O)cc(O)c5c4Oc4c(O)cc(Oc6c(O)cc(O)cc6O)c(Oc6cc(O)cc(O)c6)c4O5)c2O3)c1 [composition 10] | 83.2 | 92.1 | 88.1 | 48.2 |  | 
13 | Oc1cc(O)cc(Oc2c(O)cc(O)c3c2Oc2c(O)cc(Oc4c(O)cc(Oc5c(O)cc(O)c6c5Oc5c(O)cc(O)cc5O6)cc4O)cc2O3)c1 [composition 2] | 70.3 | 82.0 | 86.4 | 48.9 | 150.3 | 
14 | Oc1cc(O)cc(Oc2c(O)cc(O)c3c2Oc2c(O)cc4oc5c(Oc6cc(O)cc(O)c6)c(O)cc(O)c5c4c2O3)c1 [composition 4] | 80.3 | 82.3 | 85.4 |  |  | 
